From publication PMC8963254, “Effects of Lysine N-ζ-Methylation in Ultrashort Tetrabasic Lipopeptides (UTBLPs) on the Potentiation of Rifampicin, Novobiocin, and Niclosamide in Gram-Negative Bacteria” (Antibiotics, 2022)
≈ marks a conversion by molar mass, not a printed value. Like-named read-outs stand apart in the source and are kept apart here.

Key:
MRSA ATCC 33592 = format: cell-based, Staphylococcus aureus; settings: ATCC 33592, 18 h
Description: (§1) The in vitro antibacterial activity of the UTBLPs was assessed against wild-type and clinically isolated bacterial strains. To obtain the MIC of the compounds, the microbroth dilution susceptibility assay was performed according to the Clinical and Laboratory Standards Institute (CLSI, Wayne, PA, USA) guidelines and as previously described. Briefly, the compounds at varying concentrations were incubated with bacterial inoculum (5 × 10^5 CFU/mL final concentration) at 37 °C for 18 h. Growth in the form of turbidity was confirmed using an EMax Plus microplate reader (Molecular Devices, San Jose, CA, USA) at 590 nm.

S. aureus ATCC 29213 = format: cell-based, Staphylococcus aureus; settings: ATCC 29213, 18 h
Description: as §1

E. faecalis ATCC 29212 = format: cell-based, Enterococcus faecalis; settings: ATCC 29212, 18 h
Description: as §1

[1] = test system: P. aeruginosa PA259-96196; test: microbe, parasite or virus in culture; format: cell-based, Pseudomonas aeruginosa; settings: PA259-96196, 18 h
Summary of the method: (§2)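 MIC was determined by broth microdilution following CLSI guidelines. Serially varied compound concentrations were incubated with bacterial inoculum at 5 × 10^5 CFU/mL (final) for 18 h at 37 °C. Growth was scored as turbidity by absorbance at 590 nm.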

[2] = test system: P. aeruginosa PA262-101856; test: microbe, parasite or virus in culture; format: cell-based, Pseudomonas aeruginosa; settings: PA262-101856, 18 h
Summary of the method: as §2

E. coli 94393 [3] = test: microbe, parasite or virus in culture; format: cell-based, Escherichia coli; settings: 94393, 18 h
Summary of the method: as §2

E. coli 94474 [4] = test: microbe, parasite or virus in culture; format: cell-based, Escherichia coli; settings: 94474, 18 h
Summary of the method: as §2

[5] = test system: P. aeruginosa PA259-96196; format: cell-based, Pseudomonas aeruginosa; settings: for MICUTBLP: UTBLP alone
Summary of the method: (§3)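 Values derive from a two-agent checkerboard with an 18 h, 37 °C incubation. FICI cut-offs: ≤0.5 synergy, 0.5–4 additive, >4 antagonism.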

[6] = test system: P. aeruginosa PA262-101856; format: cell-based, Pseudomonas aeruginosa; settings: for MICUTBLP: UTBLP alone
Summary of the method: as §3

P. aeruginosa PAO1 = format: cell-based, Pseudomonas aeruginosa; settings: for MICUTBLP: UTBLP alone
Summary of the method: as §3

E. coli 94393 [7] = format: cell-based, Escherichia coli; settings: for MICUTBLP: UTBLP alone
Summary of the method: as §3

E. coli 94474 [8] = format: cell-based, Escherichia coli; settings: for MICUTBLP: UTBLP alone
Summary of the method: as §3

E. coli ATCC 25922 = format: cell-based, Escherichia coli; settings: for MICUTBLP: UTBLP alone
Summary of the method: as §3

E. faecium ATCC 27270 = format: cell-based, Enterococcus faecium
Summary of the method: as §3

[9] = UTBLP in combination with novobiocin
[10] = UTBLP in combination with rifampicin
[11] = novobiocin in combination with the UTBLP
[12] = rifampicin in combination with the UTBLP
[13] = UTBLP in combination with chloramphenicol
[14] = UTBLP in combination with niclosamide
[15] = chloramphenicol in combination with the UTBLP
[16] = niclosamide in combination with the UTBLP

MIC (MRSA ATCC 33592): 128 µg/mL (≈ 155 µM)
MIC (S. aureus ATCC 29213): 64 µg/mL (≈ 77.6 µM)
MIC (E. faecalis ATCC 29212): 128 µg/mL (≈ 155 µM)
MIC [1]: > 128 µg/mL
MIC [2]: 128 µg/mL (≈ 155 µM)
MIC (E. coli 94393 [3]): > 128 µg/mL
MIC (E. coli 94474 [4]): > 128 µg/mL
MICUTBLP ([5]; plate with novobiocin): > 128 µg/mL
MICUTBLP ([5]; plate with rifampicin): > 128 µg/mL
MICUTBLP [MICcombo] [5, 9]: 8 µg/mL
MICUTBLP [MICcombo] [5, 10]: 16 µg/mL
MICantibiotic [MICcombo] [5, 11]: 128 µg/mL
MICantibiotic [MICcombo] [5, 12]: 0.5 µg/mL
MICUTBLP ([6]; plate with novobiocin): 128 µg/mL
MICUTBLP ([6]; plate with rifampicin): 128 µg/mL
MICUTBLP [MICcombo] [6, 9]: 16 µg/mL
MICUTBLP [MICcombo] [6, 10]: 16 µg/mL
MICantibiotic [MICcombo] [6, 11]: 64 µg/mL
MICantibiotic [MICcombo] [6, 12]: 256 µg/mL
MICUTBLP (P. aeruginosa PAO1; plate with chloramphenicol): > 128 µg/mL
MICUTBLP (P. aeruginosa PAO1; plate with niclosamide): > 128 µg/mL
MICUTBLP (P. aeruginosa PAO1; plate with novobiocin): > 128 µg/mL
MICUTBLP (P. aeruginosa PAO1; plate with rifampicin): > 128 µg/mL
MICUTBLP [MICcombo] (P. aeruginosa PAO1; [13]): 2 µg/mL
MICUTBLP [MICcombo] (P. aeruginosa PAO1; [14]): 0.25 µg/mL
MICUTBLP [MICcombo] (P. aeruginosa PAO1; [9]): 16 µg/mL
MICUTBLP [MICcombo] (P. aeruginosa PAO1; [10]): 4 µg/mL
MICantibiotic [MICcombo] (P. aeruginosa PAO1; [15]): 4 µg/mL
MICantibiotic [MICcombo] (P. aeruginosa PAO1; [16]): 1024 µg/mL
MICantibiotic [MICcombo] (P. aeruginosa PAO1; [11]): 32 µg/mL
MICantibiotic [MICcombo] (P. aeruginosa PAO1; [12]): 2 µg/mL
MICUTBLP (E. coli 94393 [7]; plate with novobiocin): > 128 µg/mL
MICUTBLP (E. coli 94393 [7]; plate with rifampicin): > 128 µg/mL
MICUTBLP [MICcombo] (E. coli 94393 [7]; [9]): 8 µg/mL
MICUTBLP [MICcombo] (E. coli 94393 [7]; [10]): 8 µg/mL
MICantibiotic [MICcombo] (E. coli 94393 [7]; [11]): 0.5 µg/mL
MICantibiotic [MICcombo] (E. coli 94393 [7]; [12]): 0.031 µg/mL
MICUTBLP (E. coli 94474 [8]; plate with novobiocin): > 128 µg/mL
MICUTBLP (E. coli 94474 [8]; plate with rifampicin): > 128 µg/mL
MICUTBLP [MICcombo] (E. coli 94474 [8]; [9]): 8 µg/mL
MICUTBLP [MICcombo] (E. coli 94474 [8]; [10]): 8 µg/mL
MICantibiotic [MICcombo] (E. coli 94474 [8]; [11]): 4 µg/mL
MICantibiotic [MICcombo] (E. coli 94474 [8]; [12]): 0.125 µg/mL
MICUTBLP (E. coli ATCC 25922; plate with chloramphenicol): > 128 µg/mL
MICUTBLP (E. coli ATCC 25922; plate with niclosamide): > 128 µg/mL
MICUTBLP (E. coli ATCC 25922; plate with novobiocin): > 128 µg/mL
MICUTBLP (E. coli ATCC 25922; plate with rifampicin): > 128 µg/mL
MICUTBLP [MICcombo] (E. coli ATCC 25922; [13]): 32 µg/mL
MICUTBLP [MICcombo] (E. coli ATCC 25922; [14]): 8 µg/mL
MICUTBLP [MICcombo] (E. coli ATCC 25922; [9]): 8 µg/mL
MICUTBLP [MICcombo] (E. coli ATCC 25922; [10]): 8 µg/mL
MICantibiotic [MICcombo] (E. coli ATCC 25922; [15]): 1 µg/mL
MICantibiotic [MICcombo] (E. coli ATCC 25922; [16]): 0.5 µg/mL
MICantibiotic [MICcombo] (E. coli ATCC 25922; [11]): 0.25 µg/mL
MICantibiotic [MICcombo] (E. coli ATCC 25922; [12]): 0.125 µg/mL
MICUTBLP (E. faecium ATCC 27270; UTBLP alone, plate with chloramphenicol): 64 µg/mL
MICUTBLP [MICcombo] (E. faecium ATCC 27270; [13]): 0.25 µg/mL
MICchloramphenicol [MICcombo] (E. faecium ATCC 27270; [15]): 8 µg/mL
SMILES: CCCCCCCC(=O)N[C@@H](CCCCN)C(=O)NCCCN(CCCNC(=O)[C@H](CCCCN)NC(=O)CCCCCCC)CC(=O)N[C@@H](CCCCN)C(N)=O [UTBLP 1]
Interpretation ([5]; UTBLP + novobiocin): Synergy (FICI ≤ 0.5 is synergistic)
Interpretation ([5]; UTBLP + rifampicin): Synergy (FICI ≤ 0.5 is synergistic)
Interpretation ([6]; UTBLP + novobiocin): Synergy (FICI ≤ 0.5 is synergistic)
Interpretation ([6]; UTBLP + rifampicin): Synergy (FICI ≤ 0.5 is synergistic)
Interpretation (P. aeruginosa PAO1; UTBLP + chloramphenicol): Synergy (FICI ≤ 0.5 is synergistic)
Interpretation (P. aeruginosa PAO1; UTBLP + niclosamide): Additive (0.5 < x ≤ 4 is additive)
Interpretation (P. aeruginosa PAO1; UTBLP + novobiocin): Synergy (FICI ≤ 0.5 is synergistic)
Interpretation (P. aeruginosa PAO1; UTBLP + rifampicin): Synergy (FICI ≤ 0.5 is synergistic)
Interpretation (E. coli 94393 [7]; UTBLP + novobiocin): Synergy (FICI ≤ 0.5 is synergistic)
Interpretation (E. coli 94393 [7]; UTBLP + rifampicin): Synergy (FICI ≤ 0.5 is synergistic)
Interpretation (E. coli 94474 [8]; UTBLP + novobiocin): Synergy (FICI ≤ 0.5 is synergistic)
Interpretation (E. coli 94474 [8]; UTBLP + rifampicin): Synergy (FICI ≤ 0.5 is synergistic)
Interpretation (E. coli ATCC 25922; UTBLP + chloramphenicol): Synergy (FICI ≤ 0.5 is synergistic)
Interpretation (E. coli ATCC 25922; UTBLP + niclosamide): Synergy (FICI ≤ 0.5 is synergistic)
Interpretation (E. coli ATCC 25922; UTBLP + novobiocin): Synergy (FICI ≤ 0.5 is synergistic)
Interpretation (E. coli ATCC 25922; UTBLP + rifampicin): Synergy (FICI ≤ 0.5 is synergistic)
Interpretation (E. faecium ATCC 27270; UTBLP + chloramphenicol): Additive (0.5 < x ≤ 4 is additive)
